Measured values taken from US7883715B2, “Pesticide compositions containing dicarboxylic acids” (Monsanto Technology LLC, priority 2002, dated 2011).
Where two headings read alike, the source gives them in different places.

Columns and labels:
EPSPS enzyme = molecular target: T1, EPSPS enzyme (Escherichia coli, UniProt P0A6D3); test: Enzyme studies of EPSPS inhibition; type: biochemical; details: oxalic acid without glyphosate
T1 sequence (P0A6D3 1-427): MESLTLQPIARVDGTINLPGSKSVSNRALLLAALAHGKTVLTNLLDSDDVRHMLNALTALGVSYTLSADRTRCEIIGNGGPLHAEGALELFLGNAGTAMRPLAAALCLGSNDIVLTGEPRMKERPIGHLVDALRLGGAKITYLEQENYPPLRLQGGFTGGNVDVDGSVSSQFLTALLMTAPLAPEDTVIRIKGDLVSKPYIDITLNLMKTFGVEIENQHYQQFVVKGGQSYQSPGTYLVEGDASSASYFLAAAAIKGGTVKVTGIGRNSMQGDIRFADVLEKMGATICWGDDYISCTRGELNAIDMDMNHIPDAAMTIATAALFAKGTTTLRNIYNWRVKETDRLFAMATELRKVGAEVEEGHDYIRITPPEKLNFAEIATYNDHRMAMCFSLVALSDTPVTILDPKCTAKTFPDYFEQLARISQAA
Excerpt: It has been discovered that oxalic acid and derivatives thereof enhance the pesticidal activity of a pesticide by acting as either an allosteric or cooperative effecter of the inhibition of the target enzyme 5-enolpyruvylishikimate-3-phosphate synthase (hereinafter referred to as EPSP synthase or EPSPS). For example, oxalic acid increases the inhibition of EPSPS enzyme by glyphosate to enhance the physiological response of plants at the enzyme level. […] In other words, the oxalic acid is absorbed and systemically transported throughout the plant.
Glyphosate inhibits the shikimic acid pathway which leads to the biosynthesis of aromatic compounds including amino acids, plant hormones and vitamins. Specifically, glyphosate curbs the conversion of phosphoenolpyruvic acid (PEP) and 3-phosphoshikimic acid to 5-enolpyruvyl-3-phosphoshikimic acid by inhibiting the EPSPS enzyme. It is believed that oxalic acid and other dicarboxylic acids enhance the binding efficiency of glyphosate to the S3P-EPSPS complex, resulting in a whole plant response to the oxalate at a given glyphosate concentration. […] This would lower the Kd of the S3P-EPSPS-glyphosate ternary complex. Data reported in the literature from x-ray crystallography have clearly identified the 427 amino acid side chains. […]

ABUTH = test: Greenhouse herbicidal effectiveness, ABUTH; type: in vivo, velvetleaf; details: for inhibition at 2 g/ha / inhibition at 3 g/ha / inhibition at 4 g/ha / inhibition at 5 g/ha: Abutilon theophrasti; for efficacy ABUTH: Table 19A, 16 days after treatment
Excerpt: (§1) The following greenhouse testing procedure was used for evaluating compositions of the Examples to determine herbicidal effectiveness, except where otherwise indicated.
(§2) Seeds of the plant species indicated were planted in 88 mm square pots in a soil mix which was previously sterilized and prefertilized with a 14-14-14 NPK slow release fertilizer at a rate of 3.6 kg/m3. The pots were placed in a greenhouse with sub-irrigation. About one week after emergence, seedlings were thinned as needed, including removal of any unhealthy or abnormal plants, to create a uniform series of test pots.
(§3) The plants were maintained for the duration of the test in the greenhouse where they received a minimum of 14 hours of light per day. […] Exposure temperatures were not precisely controlled but averaged about 29° C. during the day and about 21° C. during the night. Plants were sub-irrigated throughout the test to ensure adequate soil moisture levels.
(§4) Pots were assigned to different treatments in a fully randomized experimental design with 6 replications. A set of pots was left untreated as a reference against which affects of the treatments could later be evaluated.
(§5) Application of glyphosate compositions was made by spraying with a track sprayer fitted with a 9501E nozzle calibrated to deliver a spray volume of 93 liters per hectare (l/ha) at a pressure of 165 kilopascals (kPa). After treatment, pots were returned to the greenhouse until ready for evaluation.
(§6) Treatments were made using dilute aqueous compositions. These could be prepared as spray compositions directly from their ingredients, or by dilution with water of preformulated concentrate compositions.
(§7) For evaluation of herbicidal effectiveness, all plants in the test were examined by a single practiced technician, who recorded percent control, a visual measurement of the effectiveness of each treatment by comparison with untreated plants. […] The reported % control values represent the average for all replicates of each treatment.

plants = test: Whole plant response to oxalic acid by itself; type: in vivo; details: enzyme studies and whole plant response
Excerpt: Glyphosate inhibits the shikimic acid pathway which leads to the biosynthesis of aromatic compounds including amino acids, plant hormones and vitamins. Specifically, glyphosate curbs the conversion of phosphoenolpyruvic acid (PEP) and 3-phosphoshikimic acid to 5-enolpyruvyl-3-phosphoshikimic acid by inhibiting the EPSPS enzyme. It is believed that oxalic acid and other dicarboxylic acids enhance the binding efficiency of glyphosate to the S3P-EPSPS complex, resulting in a whole plant response to the oxalate at a given glyphosate concentration. […] This would lower the Kd of the S3P-EPSPS-glyphosate ternary complex. Data reported in the literature from x-ray crystallography have clearly identified the 427 amino acid side chains. Each of the six α-helices in the top domain and four of the six α-helices in the lower domain are capped with basic amino acid residues. Electrostatic interaction of a dicarboxylic acid or other compound of the proper stearic requirement with these basic amino acid residues on the surface of the two domains of the enzyme are believed to produce a stapling action. Such stapling action is possible only on at least a partially closed conformation of the ternary complex of S3P-EPSPS-glyphosate. […] Any compound with stapling action to close the ternary complex tighter, thereby enhancing the inhibition of the enzyme is a suitable enhancer component of the invention.

ECHCF = test: Greenhouse herbicidal effectiveness, ECHCF; type: in vivo, Japanese millet, barnyardgrass; details: Table 19A, 16 days after treatment
Excerpt: as §1, §2, §3, §4, §5, §6, §7

TRZVX = test: Greenhouse herbicidal effectiveness, TRZVX; type: in vivo, wheat; details: Table 19A, 16 days after treatment
Excerpt: as §1, §2, §3, §4, §5, §6, §7

[1] = 1 g a.e./ha, tank mix OTH1 1 % v/v
[2] = 3 g a.e./ha, tank mix OTH1 1 % v/v
[3] = 5 g a.e./ha, tank mix OTH1 1 % v/v
[4] = 10 g a.e./ha, tank mix OTH1 1 % v/v

O=C(O)C(=O)O [oxalic acid, Oxalic Acid]
inhibitory effect on the EPSPS enzyme per se (EPSPS enzyme): do not have any inhibitory effect on the enzyme per se
inhibition at 2 g/ha (ABUTH; 336 h, read-out: % inhibition ABUTH (14 DAT), oxalate/oxalic acid alone, 2 g a.e./ha, 14 DAT, Table 44A): 0%
inhibition at 3 g/ha (ABUTH; 336 h, read-out: % inhibition ABUTH (14 DAT), oxalate/oxalic acid alone, 3 g a.e./ha, 14 DAT, Table 44A): 0%
inhibition at 4 g/ha (ABUTH; 336 h, read-out: % inhibition ABUTH (14 DAT), oxalate/oxalic acid alone, 4 g a.e./ha, 14 DAT, Table 44A): 0%
inhibition at 5 g/ha (ABUTH; 336 h, read-out: % inhibition ABUTH (14 DAT), oxalate/oxalic acid alone, 5 g a.e./ha, 14 DAT, Table 44A): 0%
inhibition at 2 g/ha (ABUTH; 480 h, read-out: % inhibition ABUTH (20 DAT), oxalate/oxalic acid alone, 2 g a.e./ha, 20 DAT, Table 44A): 0%
inhibition at 3 g/ha (ABUTH; 480 h, read-out: % inhibition ABUTH (20 DAT), oxalate/oxalic acid alone, 3 g a.e./ha, 20 DAT, Table 44A): 0%
inhibition at 4 g/ha (ABUTH; 480 h, read-out: % inhibition ABUTH (20 DAT), oxalate/oxalic acid alone, 4 g a.e./ha, 20 DAT, Table 44A): 0%
inhibition at 5 g/ha (ABUTH; 480 h, read-out: % inhibition ABUTH (20 DAT), oxalate/oxalic acid alone, 5 g a.e./ha, 20 DAT, Table 44A): 0%
herbicidal property by itself (plants): does not have any herbicidal property

COc1cc(OC)nc(NC(=O)NS(=O)(=O)c2ncccc2C(=O)N(C)C)n1 [nicosulfuron]
efficacy ABUTH (ABUTH; 1 g a.e./ha, no OTH1): 0.8
efficacy ABUTH (ABUTH; [1]): 6
efficacy ABUTH (ABUTH; 3 g a.e./ha, no OTH1): 12
efficacy ABUTH (ABUTH; [2]): 8
efficacy ABUTH (ABUTH; 5 g a.e./ha, no OTH1): 14
efficacy ABUTH (ABUTH; [3]): 10
efficacy ABUTH (ABUTH; 10 g a.e./ha, no OTH1): 28
efficacy ABUTH (ABUTH; [4]): 58
efficacy ECHCF (ECHCF; 1 g a.e./ha, no OTH1): 0.8
efficacy ECHCF (ECHCF; [1]): 4
efficacy ECHCF (ECHCF; 3 g a.e./ha, no OTH1): 13
efficacy ECHCF (ECHCF; [2]): 10
efficacy ECHCF (ECHCF; 5 g a.e./ha, no OTH1): 40
efficacy ECHCF (ECHCF; [3]): 37
efficacy ECHCF (ECHCF; 10 g a.e./ha, no OTH1): 51
efficacy ECHCF (ECHCF; [4]): 42
efficacy TRZVX (TRZVX; 1 g a.e./ha, no OTH1): 5
efficacy TRZVX (TRZVX; [1]): 3
efficacy TRZVX (TRZVX; 3 g a.e./ha, no OTH1): 15
efficacy TRZVX (TRZVX; [2]): 25
efficacy TRZVX (TRZVX; 5 g a.e./ha, no OTH1): 50
efficacy TRZVX (TRZVX; [3]): 47
efficacy TRZVX (TRZVX; 10 g a.e./ha, no OTH1): 65
efficacy TRZVX (TRZVX; [4]): 67
